The record followed here is patent publication US10781189B2, “1,2,4-Oxadiazole and thiadiazole compounds as immunomodulators” (Aurigene Discovery Technologies Limited, priority 2015, dated 2020).

Each structure is given as a SMILES string.

For this assay, the target named is T1, Recombinant mouse PD-L1 (Mus musculus, UniProt Q9EP73).
T1 construct: Fc (Fc chimera); purchased R&D Systems 1019-B7-100
T1 sequence (Q9EP73 with tags, fused parts or gaps limits assumed): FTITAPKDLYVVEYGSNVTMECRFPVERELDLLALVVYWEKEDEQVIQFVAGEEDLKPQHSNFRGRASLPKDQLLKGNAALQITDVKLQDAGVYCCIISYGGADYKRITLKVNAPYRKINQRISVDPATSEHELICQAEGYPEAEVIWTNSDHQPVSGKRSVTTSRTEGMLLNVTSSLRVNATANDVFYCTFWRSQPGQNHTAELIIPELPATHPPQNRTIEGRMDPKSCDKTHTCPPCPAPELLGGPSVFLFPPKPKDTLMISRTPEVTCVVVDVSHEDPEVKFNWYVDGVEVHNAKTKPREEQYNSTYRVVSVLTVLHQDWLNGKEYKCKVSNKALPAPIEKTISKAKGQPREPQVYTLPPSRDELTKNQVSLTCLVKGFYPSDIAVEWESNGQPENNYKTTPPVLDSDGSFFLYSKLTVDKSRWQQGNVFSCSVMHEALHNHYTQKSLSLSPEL
In words: Rescue of mouse splenocyte proliferation in the presence of recombinant PD-L1 (CFSE proliferation assay). The class given is cell-based. The following applies: 100 nM compound; CFSE-labelled C57 BL6 mouse splenocytes + anti-CD3/CD28 + PD-L1 (100 ng/mL), 72 h; normalised to stimulated splenocytes as 100%; read-out: Percent rescue of splenocyte proliferation (@100 nM). The procedure:
Example 15: Rescue of Mouse Splenocyte Proliferation in the Presence of Recombinant PD-L1
Recombinant mouse PD-L1 (rm-PDL-1, cat no: 1019-B7-100; R&D Systems) were used as the source of PD-L1.
Mouse splenocytes harvested from 6-8 weeks old C57 BL6 mice; RPMI 1640 (GIBCO, Cat #11875); DMEM with high glucose (GIBCO, Cat # D6429); Fetal Bovine Serum [Hyclone, Cat # SH30071.03]; Penicillin (10000 unit/mL)-Streptomycin (10,000 μg/mL) Liquid (GIBCO, Cat #15140-122); MEM Sodium Pyruvate solution 100 mM (100×), Liquid (GIBCO, Cat #11360); Nonessential amino acid (GIBCO, Cat #11140); L-Glutamine (GIBCO, Cat #25030); Anti-CD3 antibody (eBiosciences—16-0032); Anti-CD28 antibody (eBiosciences—16-0281); ACK lysis buffer (1 mL) (GIBCO, Cat #-A10492); Histopaque (density-1.083 gm/mL) (SIGMA 10831); Trypan blue solution (SIGMA-T8154); 2 mL Norm Ject Luer Lock syringe-(Sigma 2014-12); 40 μm nylon cell strainer (BD FALCON 35230); Hemacytometer (Bright line-SIGMA Z359629); FACS Buffer (PBS/0.1% BSA): Phosphate Buffered Saline (PBS) pH 7.2 (HiMedia TS1006) with 0.1% Bovine Serum Albumin (BSA) (SIGMA A7050) and sodium azide (SIGMA 08591); 5 mM stock solution of CFSE: CFSE stock solution was prepared by diluting lyophilized CFSE with 180 μL of Dimethyl sulfoxide (DMSO C2H6SO, SIGMA-D-5879) and aliquoted in to tubes for further use. Working concentrations were titrated from 10 μM to 1 μM. (eBioscience—650850-85); 0.05% Trypsin and 0.02% EDTA (SIGMA 59417C); 96-well format ELISA plates (Corning CLS3390); BD FACS caliber (E6016); Recombinant mouse B7-H1/PDL1 Fc Chimera, (rm-PD-L1 cat no: 1019-B7-100).
Splenocytes harvested in a 50 mL falcon tube by mashing mouse spleen in a 40 μm cell strainer were further treated with 1 mL ACK lysis buffer for 5 min at room temperature. After washing with 9 mL of RPMI complete media, cells were re-suspended in 3 mL of 1×PBS in a 15 mL tube. 3 mL of Histopaque was added carefully to the bottom of the tube without disturbing overlaying splenocyte suspension. After centrifuging at 800×g for 20 min at room temperature, the opaque layer of splenocytes was collected carefully without disturbing/mixing the layers. Splenocytes were washed twice with cold 1×PBS followed by total cell counting using Trypan Blue exclusion method and used further for cell based assays.
Splenocytes were cultured in RPMI complete media (RPMI+10% fetal bovine serum+1 mM sodium pyruvate+10,000 units/mL penicillin and […] streptomycin) and maintained in a CO2 incubator with 5% CO2 at 37° C.
CFSE is a dye that passively diffuses into cells and binds to intracellular proteins. 1×10^6 cells/mL of harvested splenocytes were treated with 5 μM of CFSE in pre-warmed 1×PBS/0.1% BSA solution for 10 min at 37° C. Excess CFSE was quenched using 5 volumes of ice-cold culture media to the cells and incubated on ice for 5 min. CFSE labelled splenocytes were further given three washes with ice cold complete RPMI media. CFSE labelled 1×10^5 splenocytes added to wells containing either MDA-MB231 cells (1×10^5 cells cultured in high glucose DMEM medium) or recombinant human PDL-1 (100 ng/mL) and test compounds. Splenocytes were stimulated with anti-mouse CD3 and anti-mouse CD28 antibody (1 μg/mL each) and the culture was further incubated for 72 h at 37° C. with 5% CO2. Cells were harvested and washed thrice with ice cold FACS buffer and % proliferation was analysed by flow cytometry with 488 nm excitation and 521 nm emission filters.
Percent splenocyte proliferation was analysed using cell quest FACS program and percent rescue of splenocyte proliferation by compound was estimated after deduction of % background proliferation value and normalising to % stimulated splenocyte proliferation (positive control) as 100%.
Stimulated splenocytes: Splenocytes+anti-CD3/CD28 stimulation
Background proliferation: Splenocytes+anti-CD3/CD28+PD-L1
Compound proliferation: Splenocytes+anti-CD3/CD28+PD-L1+Compound […]
`CCCCCOC(=O)[C@@H](NC(=O)N[C@@H](CC(N)=O)c1nc([C@@H](N)CO)no1)C(C)O` (stereo partly shown) [Compound 80]: the activation at 0.1 µM was 55%. Regarding `CC(O)[C@H](NC(=O)N[C@@H](C)c1nc([C@@H](N)CO)no1)C(=O)O` (stereo partly shown) [Compound 17], the activation at 0.1 µM was 58%. As for `CC(O)[C@H](NC(=O)N[C@@H](Cc1c[nH]c2ccccc12)c1nc([C@@H](N)CO)no1)C(=O)O` (stereo partly shown) [Compound 43], the activation at 0.1 µM is 60%. As to `NCCCC[C@H](NC(=O)N[C@@H](CC(=O)O)c1nc([C@@H](N)Cc2cnc[nH]2)no1)C(=O)O` [Compound 35], the activation at 0.1 µM amounted to 66%. Regarding `CC(=O)NCCCC[C@H](NC(=O)N[C@H](C(=O)O)C(C)O)c1nc([C@@H](N)CO)no1` (stereo partly shown) [Compound 27], the activation at 0.1 µM worked out at 37%. As for `CC(O)[C@H](NC(=O)N1CCC[C@H]1c1nc([C@@H](N)CO)no1)C(=O)O` (stereo partly shown) [Compound 6], the activation at 0.1 µM was found to be 69%. For the compound `CCC(C)[C@H](N)c1noc([C@H](CC(N)=O)NC(=O)N[C@H](C(=O)O)C(C)O)n1` (stereo partly shown) [Compound 9], the activation at 0.1 µM amounted to 84%. To `CC(O)[C@H](NC(=O)N[C@@H](CC(N)=O)c1nc([C@@H](N)Cc2ccc(O)cc2)no1)C(=O)O` (stereo partly shown) [Compound 42] belongs 50%; to `NC(=O)C[C@H](NC(=O)N[C@@H](CC(N)=O)c1nc([C@@H](N)CC(N)=O)no1)C(=O)O` [Compound 56], 26%; to `CCC(C)[C@H](NC(=O)N[C@H](C(=O)O)C(C)O)c1nc([C@@H](N)CO)no1` (stereo partly shown) [Compound 16], 50%. With `CC(O)[C@H](NC(=O)N[C@@H](CC(N)=O)c1nc([C@@H](N)CCC(=O)O)no1)C(=O)O` (stereo partly shown) [Compound 2], the activation at 0.1 µM was 68%. Regarding `N[C@@H](CCC(=O)O)c1noc([C@@H]2CCCN2C(=O)N[C@@H](CC(=O)O)C(=O)O)n1` [Compound 24], the activation at 0.1 µM turned out to be 17%. Regarding `C[C@@H](O)[C@H](NC(=O)N[C@@H](CC(N)=O)c1nc([C@@H](N)Cc2c[nH]c3ccccc23)no1)C(=O)O` (stereo in doubt) [Compound 41], the activation at 0.1 µM was determined as 78%. For the compound `CCCCCCNC(=O)CC[C@H](NC(=O)N[C@@H](CCC(N)=O)C(=O)N[C@H](C(=O)O)C(C)O)c1nc([C@@H](N)CO)no1` (stereo partly shown) [Compound 78], the activation at 0.1 µM was 42%. On to `CC(O)[C@H](NC(=O)[C@H](CCC(N)=O)NC(=O)N[C@@H](CC(N)=O)c1nc([C@@H](N)CO)no1)C(=O)O` (stereo partly shown) [Compound 81], for which the activation at 0.1 µM worked out at 18%. Take `NC(=O)C[C@H](NC(=O)N[C@@H](Cc1ccccc1)C(=O)O)c1nc([C@@H](N)CO)no1` [Compound 39]: the activation at 0.1 µM was found to be 75%. For the compound `CC(O)[C@H](NC(=O)N[C@@H](CC(N)=O)c1nc([C@@H](N)C(C)C)no1)C(=O)O` (stereo partly shown) [Compound 40], the activation at 0.1 µM was 67%. Take `CCC(C)[C@H](N)c1noc([C@@H](NC(=O)N[C@H](C(=O)O)C(C)O)C(C)CC)n1` (stereo partly shown) [Compound 52]: the activation at 0.1 µM is 71%. `CC(C)[C@H](NC(=O)N[C@@H](CC(N)=O)c1nc([C@@H](N)CCCCN)no1)C(=O)O` [Compound 45]: the activation at 0.1 µM amounted to 17%. Consider `CC(O)[C@H](NC(=O)N[C@@H](CCC(N)=O)c1nc([C@@H](N)CCCNC(=N)N)no1)C(=O)O` (stereo partly shown) [Compound 33], for which the activation at 0.1 µM came out at 60%. In the case of `CC(O)[C@H](NC(=O)N[C@@H](CCCCN)c1nc([C@@H](N)CO)no1)C(=O)O` (stereo partly shown) [Compound 11], the activation at 0.1 µM came out at 66%.

In the case of `CCCCCCNC(=O)C[C@H](NC(=O)N[C@H](C(=O)O)C(C)O)c1nc([C@@H](N)CO)no1` (stereo partly shown) [Compound 77], the activation at 0.1 µM was 75%. `Cn1cc(CN[C@@H](CC(N)=O)c2nc([C@@H](N)CO)no2)cn1` [Compound 95]: the activation at 0.1 µM was 30%.

Consider `CC(O)[C@H](NC(=O)N[C@@H](CC(N)=O)c1nc([C@H](C)N)no1)C(=O)O` (stereo partly shown) [Compound 15], for which the activation at 0.1 µM amounted to 28%.

As to `CCCCCCNC(=O)CC[C@@H](NC(=O)N[C@H](C(=O)O)C(C)O)c1nc([C@@H](N)CO)no1` (stereo partly shown) [Compound 76], the activation at 0.1 µM amounted to 67%. Regarding `NC(=O)C[C@H](NS(=O)(=O)C1CCCCC1)c1nc([C@@H](N)CO)no1` [Compound 89], the activation at 0.1 µM stood at 54%. In the case of `N[C@@H](Cc1ccc(O)cc1)c1noc([C@@H]2C(O)CCN2C(=O)N[C@@H](Cc2ccc(O)cc2)C(=O)O)n1` (stereo partly shown) [Compound 19], the activation at 0.1 µM was determined as 54%. As for `NC(=O)C[C@H](NC(=O)N[C@@H](CCC(=O)O)C(=O)O)c1nc([C@@H](N)CO)no1` [Compound 4], the activation at 0.1 µM was determined as 44%. In the case of `CC(O)[C@H](NC(=O)N1CCC[C@H]1c1nc([C@@H](N)Cc2ccc(O)cc2)no1)C(=O)O` (stereo partly shown) [Compound 21], the activation at 0.1 µM turned out to be 51%. To `NCCCC[C@H](N)c1noc([C@H](CCC(N)=O)NC(=O)N[C@@H](CO)C(=O)O)n1` [Compound 36] belongs 68%.

As for `NC(=O)CC[C@H](NC(=O)N[C@@H](CC(N)=O)c1nc([C@@H](N)CO)no1)C(=O)O` [Compound 28], the activation at 0.1 µM is 36%. The result for `CC(O)[C@H](NC(=O)N[C@@H](CC(N)=O)c1noc([C@@H](N)CO)n1)C(=O)O` (stereo partly shown) [Compound 83] reads 34%; that for `CCC(C)[C@H](NC(=O)N[C@@H](CCC(=O)O)C(=O)O)c1nc([C@@H](N)CCC(N)=O)no1` (stereo partly shown) [Compound 10], 84%; that for `CC(O)[C@@H](NC(=O)N[C@@H](CC(N)=O)c1nc([C@@H](N)CO)no1)c1nnc(CO)o1` (stereo partly shown) [Compound 79], 37%. In the case of `NCCCC[C@H](N)c1noc([C@H](CC(N)=O)NC(=O)N[C@@H](CO)C(=O)O)n1` [Compound 31], the activation at 0.1 µM is 42%.

On to `NCCCC[C@H](N)c1noc([C@H](CCC(N)=O)NS(=O)(=O)N[C@@H](CO)C(=O)O)n1` [Compound 103], for which the activation at 0.1 µM was found to be 79%. For `CC(C)C[C@H](N)c1noc([C@H](CC(N)=O)NC(=O)CNC(=O)N[C@H](C(=O)O)C(C)O)n1` (stereo partly shown) [Compound 82], the activation at 0.1 µM was 12%. On to `CC(O)[C@H](NC(=O)N[C@@H](CC(N)=O)c1nc([C@@H](N)CCCCN)no1)C(=O)O` (stereo partly shown) [Compound 8], for which the activation at 0.1 µM came out at 48%. With `N[C@@H](Cc1ccc(O)cc1)c1noc([C@@H]2CCCN2C(=O)N[C@@H](Cc2ccc(O)cc2)C(=O)O)n1` [Compound 7], the activation at 0.1 µM came to 91%. To `CCC(C)[C@H](NC(=O)N[C@@H](CC(N)=O)c1nc([C@@H](N)CO)no1)C(=O)O` (stereo partly shown) [Compound 3] belongs 73%; to `NCCCC[C@H](NC(=O)N[C@@H](CC(N)=O)c1nc([C@@H](N)CO)no1)C(=O)O` [Compound 5], 38%. With `CC(O)[C@H](NC(=O)N[C@@H](CC(N)=O)c1nc([C@@H](N)Cc2ccccc2)no1)C(=O)O` (stereo partly shown) [Compound 13], the activation at 0.1 µM is 62%.

As for `C[C@H](NC(=O)N[C@@H](CC(N)=O)c1nc([C@@H](N)CO)no1)C(=O)O` [Compound 18], the activation at 0.1 µM amounted to 57%.
